Experimental data taken from patent publication US20250367212A1, “PHARMACOTHERAPY FOR OBSESSIVE-COMPULSIVE DISORDER TARGETING DOPAMINE D1 SIGNAL IN STRIATAL STRIOSOMES” (priority 2022, published 2025).
Like-named read-outs stand apart in the source and are kept apart here.

Assays:
[1] = test system: rodent model using fear conditioning; details: cited from earlier work
[2] = test system: patients with blepharospasm; details: for neurological or neuropsychiatric changes during the drug challenge test: in vivo
[3] = n=7 per group, 8 weeks, single drug

Compound	fear memory ([1]; single injection of D2 receptor antagonist, Ponnusamy et al., Learning & Memory 2005)	fear memory ([1]; administration of D1 receptor agonist, Chen et al., Brain Research 2020)	neurological or neuropsychiatric changes during the drug challenge test [2]	change in severity of blepharospasm, BSDI, before vs after drug challenge test [2, 3]	change in severity of blepharospasm, JRS, before vs after drug challenge test [2, 3]	change in severity of blepharospasm, VAS, before vs after drug challenge test [2, 3]	change in severity of blepharospasm, mVAS, before vs after drug challenge test [2, 3]	corrected VAS (mVAS), after the drug challenge test ([2]; L-DOPA group, n=7, DOPACOL 1 to 3 tablets/day over 8 weeks, before 141.3±8.7, P<0.05, severity significantly progressed)
CCN1CCCC1CNC(=O)c1cc(S(N)(=O)=O)ccc1OC (stereo not drawn) [sulpiride]	effective in erasing fear memory							
Br.Cc1cccc(C2CN(C)CCc3c2cc(O)c(O)c3Cl)c1 (stereo not drawn) [SKF83959]		long-term loss of fear memory						
CN(C)CCCN1c2ccccc2Sc2ccc(Cl)cc21 [CPZ, chlorpromazine]			No apparent neurological or neuropsychiatric changes	No significant changes in severity	No significant changes in severity	No significant changes in severity	No significant changes in severity	
N[C@@H](Cc1ccc(O)c(O)c1)C(=O)O [L-DOPA, L-3,4-dihydroxyphenylalanine]			No apparent neurological or neuropsychiatric changes	no severity progressed	no severity progressed	no severity progressed		178.8±24.3
